From ChEMBL document CHEMBL3991601, “The target landscape of clinical kinase drugs” (Science, 2017)
Active and inactive are the calls of the source. Cut-off read from the data, not from the text of the source, for most assays here: actives have a measured Kd and inactives only a lower limit.

Legend:
Aurora kinase B = Aurora kinase B (Homo sapiens, UniProt Q96GD4)
[1] = molecular target: BMP-2-inducible protein kinase (Homo sapiens, UniProt Q9NSY1)
[2] = molecular target: T1, Discoidin domain-containing receptor 2 (Homo sapiens, UniProt Q16832)
T1 sequence (Q16832 whole entry): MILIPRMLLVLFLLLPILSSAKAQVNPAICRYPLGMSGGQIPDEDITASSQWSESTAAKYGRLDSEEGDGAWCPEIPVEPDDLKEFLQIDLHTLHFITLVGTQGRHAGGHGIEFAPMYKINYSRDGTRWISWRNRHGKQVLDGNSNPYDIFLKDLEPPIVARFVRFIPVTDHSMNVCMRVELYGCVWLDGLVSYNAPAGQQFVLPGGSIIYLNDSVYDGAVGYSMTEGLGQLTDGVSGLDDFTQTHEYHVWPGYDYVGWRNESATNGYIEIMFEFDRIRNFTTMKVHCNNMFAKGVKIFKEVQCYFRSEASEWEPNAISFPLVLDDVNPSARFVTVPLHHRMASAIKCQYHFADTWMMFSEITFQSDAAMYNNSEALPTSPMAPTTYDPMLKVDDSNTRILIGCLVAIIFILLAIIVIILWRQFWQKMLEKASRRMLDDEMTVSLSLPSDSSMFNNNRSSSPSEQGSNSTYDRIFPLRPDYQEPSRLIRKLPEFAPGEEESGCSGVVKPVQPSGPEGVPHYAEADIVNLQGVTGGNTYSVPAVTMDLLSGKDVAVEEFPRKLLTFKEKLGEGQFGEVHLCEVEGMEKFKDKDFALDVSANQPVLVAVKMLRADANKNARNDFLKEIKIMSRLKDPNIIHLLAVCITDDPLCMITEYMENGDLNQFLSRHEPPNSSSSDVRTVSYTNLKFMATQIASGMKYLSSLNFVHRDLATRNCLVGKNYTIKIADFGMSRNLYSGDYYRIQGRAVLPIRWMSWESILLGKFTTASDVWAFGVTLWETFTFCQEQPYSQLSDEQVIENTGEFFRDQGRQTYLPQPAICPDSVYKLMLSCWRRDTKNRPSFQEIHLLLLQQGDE

[3] = molecular target: Eukaryotic translation initiation factor 2-alpha kinase 1 (Homo sapiens, UniProt Q9BQI3)
Sequence of Eukaryotic translation initiation factor 2-alpha kinase 1 (Q9BQI3 whole entry): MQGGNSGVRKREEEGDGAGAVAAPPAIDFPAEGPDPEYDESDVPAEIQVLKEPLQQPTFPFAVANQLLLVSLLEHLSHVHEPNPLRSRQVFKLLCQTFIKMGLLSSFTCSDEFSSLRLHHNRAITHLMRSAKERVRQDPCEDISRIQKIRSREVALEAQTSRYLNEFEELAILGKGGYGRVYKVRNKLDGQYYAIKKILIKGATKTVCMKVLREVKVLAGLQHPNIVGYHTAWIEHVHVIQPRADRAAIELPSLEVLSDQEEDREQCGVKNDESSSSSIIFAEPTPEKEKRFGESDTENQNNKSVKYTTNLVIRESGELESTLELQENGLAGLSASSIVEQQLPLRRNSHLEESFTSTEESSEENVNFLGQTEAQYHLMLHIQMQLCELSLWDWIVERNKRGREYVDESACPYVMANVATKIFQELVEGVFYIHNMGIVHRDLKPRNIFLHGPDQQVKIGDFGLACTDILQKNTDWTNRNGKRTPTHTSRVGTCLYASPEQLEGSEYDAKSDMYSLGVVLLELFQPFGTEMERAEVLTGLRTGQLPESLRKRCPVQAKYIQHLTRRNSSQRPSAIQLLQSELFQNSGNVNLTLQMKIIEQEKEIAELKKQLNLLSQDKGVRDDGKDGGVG

Ephrin type-A receptor 7 = Ephrin type-A receptor 7 (Homo sapiens, UniProt Q15375)
Sequence of Ephrin type-A receptor 7 (Q15375 whole entry): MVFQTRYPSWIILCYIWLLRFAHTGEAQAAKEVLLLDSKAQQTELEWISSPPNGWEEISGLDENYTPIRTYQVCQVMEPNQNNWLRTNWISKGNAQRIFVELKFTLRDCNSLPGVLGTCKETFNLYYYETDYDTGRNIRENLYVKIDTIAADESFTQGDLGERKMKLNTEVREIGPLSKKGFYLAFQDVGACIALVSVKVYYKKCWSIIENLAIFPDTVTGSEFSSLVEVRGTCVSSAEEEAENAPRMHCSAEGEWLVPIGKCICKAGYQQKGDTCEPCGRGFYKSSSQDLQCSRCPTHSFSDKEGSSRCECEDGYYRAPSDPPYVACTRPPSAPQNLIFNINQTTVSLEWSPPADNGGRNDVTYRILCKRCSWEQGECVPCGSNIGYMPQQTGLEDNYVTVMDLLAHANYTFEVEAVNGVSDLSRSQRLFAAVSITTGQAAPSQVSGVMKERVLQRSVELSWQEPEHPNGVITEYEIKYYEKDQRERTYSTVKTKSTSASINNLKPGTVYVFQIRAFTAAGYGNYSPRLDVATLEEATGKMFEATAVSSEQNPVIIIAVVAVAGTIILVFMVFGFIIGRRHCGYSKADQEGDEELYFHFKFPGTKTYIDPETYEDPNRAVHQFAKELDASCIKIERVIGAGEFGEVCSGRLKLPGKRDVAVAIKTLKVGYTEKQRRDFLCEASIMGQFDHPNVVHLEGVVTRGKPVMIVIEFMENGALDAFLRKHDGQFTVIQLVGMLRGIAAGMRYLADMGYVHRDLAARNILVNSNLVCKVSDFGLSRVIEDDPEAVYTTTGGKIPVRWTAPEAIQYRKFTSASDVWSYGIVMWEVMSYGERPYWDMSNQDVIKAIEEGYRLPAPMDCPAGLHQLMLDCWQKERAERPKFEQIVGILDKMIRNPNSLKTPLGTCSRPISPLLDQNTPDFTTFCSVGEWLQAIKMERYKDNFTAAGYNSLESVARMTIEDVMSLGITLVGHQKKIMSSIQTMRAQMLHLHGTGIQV

[4] = molecular target: Mitogen-activated protein kinase 7 (Homo sapiens, UniProt Q13164)
Sequence of Mitogen-activated protein kinase 7 (Q13164 whole entry): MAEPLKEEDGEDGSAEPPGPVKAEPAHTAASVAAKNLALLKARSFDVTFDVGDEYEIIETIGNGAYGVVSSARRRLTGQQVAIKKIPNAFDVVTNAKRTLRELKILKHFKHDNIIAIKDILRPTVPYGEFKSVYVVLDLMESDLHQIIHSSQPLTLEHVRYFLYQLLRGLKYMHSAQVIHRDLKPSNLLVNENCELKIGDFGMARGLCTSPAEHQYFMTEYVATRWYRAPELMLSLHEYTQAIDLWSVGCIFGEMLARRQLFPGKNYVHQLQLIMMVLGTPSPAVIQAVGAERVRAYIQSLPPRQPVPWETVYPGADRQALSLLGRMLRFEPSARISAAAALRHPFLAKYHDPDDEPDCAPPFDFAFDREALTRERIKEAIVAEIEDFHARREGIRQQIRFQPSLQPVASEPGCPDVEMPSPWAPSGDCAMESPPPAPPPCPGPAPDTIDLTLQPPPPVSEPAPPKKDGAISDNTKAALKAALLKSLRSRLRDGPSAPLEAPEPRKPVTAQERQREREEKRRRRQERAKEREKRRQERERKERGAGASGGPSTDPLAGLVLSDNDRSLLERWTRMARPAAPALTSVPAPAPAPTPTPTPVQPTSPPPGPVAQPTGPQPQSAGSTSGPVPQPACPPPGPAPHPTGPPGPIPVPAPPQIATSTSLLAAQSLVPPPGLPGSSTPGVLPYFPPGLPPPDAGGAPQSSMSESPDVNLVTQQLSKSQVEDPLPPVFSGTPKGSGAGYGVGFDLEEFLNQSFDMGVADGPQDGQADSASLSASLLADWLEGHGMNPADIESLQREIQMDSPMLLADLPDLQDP

[5] = molecular target: T2, Ribosyldihydronicotinamide dehydrogenase [quinone] (Homo sapiens, UniProt P16083)
T2 sequence (P16083 whole entry): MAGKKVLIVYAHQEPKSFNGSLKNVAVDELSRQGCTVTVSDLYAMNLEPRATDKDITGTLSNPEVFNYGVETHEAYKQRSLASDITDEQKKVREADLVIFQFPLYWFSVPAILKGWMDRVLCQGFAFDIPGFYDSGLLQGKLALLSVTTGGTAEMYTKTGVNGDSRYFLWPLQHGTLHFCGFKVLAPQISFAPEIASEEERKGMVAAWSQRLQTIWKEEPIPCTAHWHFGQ

[6] = molecular target: Platelet-derived growth factor receptor beta (Homo sapiens, UniProt P09619)
Sequence of Platelet-derived growth factor receptor beta (P09619 whole entry): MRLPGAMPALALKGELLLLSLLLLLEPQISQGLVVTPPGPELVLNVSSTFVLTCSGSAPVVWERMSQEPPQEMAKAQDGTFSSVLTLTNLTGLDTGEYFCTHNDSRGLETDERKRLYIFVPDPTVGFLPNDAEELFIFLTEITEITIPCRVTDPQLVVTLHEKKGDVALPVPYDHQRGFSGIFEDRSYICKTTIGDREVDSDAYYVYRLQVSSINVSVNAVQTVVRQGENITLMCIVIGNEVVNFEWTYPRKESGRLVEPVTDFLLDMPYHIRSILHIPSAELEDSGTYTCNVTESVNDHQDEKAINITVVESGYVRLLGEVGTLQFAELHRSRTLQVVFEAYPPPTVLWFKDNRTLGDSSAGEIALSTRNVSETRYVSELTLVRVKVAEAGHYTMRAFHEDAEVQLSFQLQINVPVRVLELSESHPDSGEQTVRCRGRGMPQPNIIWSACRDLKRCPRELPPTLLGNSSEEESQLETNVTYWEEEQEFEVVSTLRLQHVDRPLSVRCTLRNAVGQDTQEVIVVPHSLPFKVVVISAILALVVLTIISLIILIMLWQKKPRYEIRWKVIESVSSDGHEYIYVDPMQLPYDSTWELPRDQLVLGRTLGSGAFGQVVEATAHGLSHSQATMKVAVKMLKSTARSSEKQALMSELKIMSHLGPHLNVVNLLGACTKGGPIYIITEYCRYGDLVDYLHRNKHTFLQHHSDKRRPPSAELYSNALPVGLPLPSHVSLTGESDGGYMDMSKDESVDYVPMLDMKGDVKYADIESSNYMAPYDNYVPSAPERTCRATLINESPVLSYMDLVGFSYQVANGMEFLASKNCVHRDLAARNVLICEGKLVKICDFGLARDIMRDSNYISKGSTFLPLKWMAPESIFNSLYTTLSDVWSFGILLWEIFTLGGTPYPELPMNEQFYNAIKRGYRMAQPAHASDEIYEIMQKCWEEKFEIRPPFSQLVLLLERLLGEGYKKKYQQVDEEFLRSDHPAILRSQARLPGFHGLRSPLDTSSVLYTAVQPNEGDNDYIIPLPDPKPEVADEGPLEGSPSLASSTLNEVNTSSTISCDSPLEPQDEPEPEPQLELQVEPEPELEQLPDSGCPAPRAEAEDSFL

[7] = molecular target: cAMP-dependent protein kinase type II-alpha regulatory subunit (Homo sapiens, UniProt P13861)
[8] = molecular target: T3, Structural maintenance of chromosomes protein 1A (Homo sapiens, UniProt Q14683)
T3 sequence (Q14683 whole entry): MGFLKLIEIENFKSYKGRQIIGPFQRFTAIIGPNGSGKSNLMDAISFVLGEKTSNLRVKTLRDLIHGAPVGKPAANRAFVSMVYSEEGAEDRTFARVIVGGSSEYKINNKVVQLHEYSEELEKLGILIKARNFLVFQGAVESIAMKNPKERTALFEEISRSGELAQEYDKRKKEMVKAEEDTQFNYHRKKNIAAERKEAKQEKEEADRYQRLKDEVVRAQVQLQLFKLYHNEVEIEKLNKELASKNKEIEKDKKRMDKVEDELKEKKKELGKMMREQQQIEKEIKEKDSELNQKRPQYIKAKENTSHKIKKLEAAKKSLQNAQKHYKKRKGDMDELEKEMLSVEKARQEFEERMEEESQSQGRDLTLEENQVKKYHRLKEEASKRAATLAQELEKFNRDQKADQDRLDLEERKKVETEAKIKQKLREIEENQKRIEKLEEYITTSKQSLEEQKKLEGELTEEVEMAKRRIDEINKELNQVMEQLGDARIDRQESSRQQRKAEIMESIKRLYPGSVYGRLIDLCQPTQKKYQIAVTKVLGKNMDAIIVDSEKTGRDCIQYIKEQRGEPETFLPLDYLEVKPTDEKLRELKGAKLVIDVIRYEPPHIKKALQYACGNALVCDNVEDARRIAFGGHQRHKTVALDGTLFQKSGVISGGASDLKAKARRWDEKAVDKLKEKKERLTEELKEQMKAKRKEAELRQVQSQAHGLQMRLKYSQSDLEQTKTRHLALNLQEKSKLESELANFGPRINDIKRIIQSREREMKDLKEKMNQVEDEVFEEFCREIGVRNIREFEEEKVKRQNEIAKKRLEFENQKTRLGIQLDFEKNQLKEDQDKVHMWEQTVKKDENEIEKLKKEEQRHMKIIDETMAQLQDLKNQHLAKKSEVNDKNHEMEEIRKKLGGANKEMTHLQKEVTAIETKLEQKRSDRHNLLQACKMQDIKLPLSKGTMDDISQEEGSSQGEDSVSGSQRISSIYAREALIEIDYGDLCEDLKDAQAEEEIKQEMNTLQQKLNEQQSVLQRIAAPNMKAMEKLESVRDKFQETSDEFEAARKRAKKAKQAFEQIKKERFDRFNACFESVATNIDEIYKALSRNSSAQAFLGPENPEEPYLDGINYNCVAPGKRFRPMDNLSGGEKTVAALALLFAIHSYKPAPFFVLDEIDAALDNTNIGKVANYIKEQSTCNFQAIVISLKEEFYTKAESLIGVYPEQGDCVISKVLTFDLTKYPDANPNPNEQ

[9] = molecular target: T4, EKC/KEOPS complex subunit TP53RK (Homo sapiens, UniProt Q96S44)
T4 sequence (Q96S44 whole entry): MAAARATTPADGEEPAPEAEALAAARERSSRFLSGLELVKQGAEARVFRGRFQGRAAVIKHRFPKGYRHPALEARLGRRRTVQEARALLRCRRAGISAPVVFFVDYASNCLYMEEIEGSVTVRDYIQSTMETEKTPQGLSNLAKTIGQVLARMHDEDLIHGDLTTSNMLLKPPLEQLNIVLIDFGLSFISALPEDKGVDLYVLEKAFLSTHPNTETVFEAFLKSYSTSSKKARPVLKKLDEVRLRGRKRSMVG
Note: in the data inactive means no Kd found up to 30 µM.

Sequence of BMP-2-inducible protein kinase (Q9NSY1 whole entry, the tested form may be a part): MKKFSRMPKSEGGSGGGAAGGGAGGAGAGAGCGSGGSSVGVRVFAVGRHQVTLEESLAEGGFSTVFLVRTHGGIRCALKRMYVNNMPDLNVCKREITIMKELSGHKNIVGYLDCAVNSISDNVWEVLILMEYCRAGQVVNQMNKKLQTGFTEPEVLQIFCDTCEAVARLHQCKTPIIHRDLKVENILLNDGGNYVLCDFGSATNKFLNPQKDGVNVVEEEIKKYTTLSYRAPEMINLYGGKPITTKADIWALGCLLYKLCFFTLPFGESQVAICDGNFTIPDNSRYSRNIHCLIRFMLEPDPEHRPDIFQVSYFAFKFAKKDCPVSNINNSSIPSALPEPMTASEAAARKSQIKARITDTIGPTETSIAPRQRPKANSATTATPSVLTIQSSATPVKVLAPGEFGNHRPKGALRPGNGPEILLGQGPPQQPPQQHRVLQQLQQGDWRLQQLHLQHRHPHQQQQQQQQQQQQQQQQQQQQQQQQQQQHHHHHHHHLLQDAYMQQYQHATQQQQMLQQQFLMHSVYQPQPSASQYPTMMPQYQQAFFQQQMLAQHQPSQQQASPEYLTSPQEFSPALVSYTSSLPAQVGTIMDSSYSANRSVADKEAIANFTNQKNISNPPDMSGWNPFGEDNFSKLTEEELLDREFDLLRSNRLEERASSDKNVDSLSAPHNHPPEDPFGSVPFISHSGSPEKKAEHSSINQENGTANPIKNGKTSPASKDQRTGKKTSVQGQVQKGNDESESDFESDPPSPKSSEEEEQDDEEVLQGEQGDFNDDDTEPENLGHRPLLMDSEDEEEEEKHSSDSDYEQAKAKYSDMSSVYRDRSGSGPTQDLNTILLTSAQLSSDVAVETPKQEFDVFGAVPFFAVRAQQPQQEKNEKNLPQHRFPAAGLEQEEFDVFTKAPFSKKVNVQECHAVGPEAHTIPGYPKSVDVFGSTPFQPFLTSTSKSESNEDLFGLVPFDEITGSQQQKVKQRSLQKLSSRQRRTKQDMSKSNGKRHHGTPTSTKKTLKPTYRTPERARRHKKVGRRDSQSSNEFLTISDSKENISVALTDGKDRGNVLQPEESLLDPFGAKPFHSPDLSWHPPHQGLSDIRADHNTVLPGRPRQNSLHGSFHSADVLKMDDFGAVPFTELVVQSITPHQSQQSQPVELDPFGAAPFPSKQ
Sequence of Aurora kinase B (Q96GD4 whole entry): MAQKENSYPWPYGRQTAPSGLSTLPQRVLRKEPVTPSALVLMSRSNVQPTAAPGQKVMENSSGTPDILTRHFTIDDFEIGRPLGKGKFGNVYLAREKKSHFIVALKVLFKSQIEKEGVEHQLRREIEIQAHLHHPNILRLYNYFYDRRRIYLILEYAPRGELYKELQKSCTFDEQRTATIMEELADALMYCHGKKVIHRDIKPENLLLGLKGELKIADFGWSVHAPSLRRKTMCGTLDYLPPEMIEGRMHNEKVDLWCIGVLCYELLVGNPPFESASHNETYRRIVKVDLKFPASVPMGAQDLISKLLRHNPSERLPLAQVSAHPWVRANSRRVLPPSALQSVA

SMILES | Kd (Aurora kinase B) | Kd [1] | Kd [2] | Kd [3] | Kd (Ephrin type-A receptor 7) | Kd [4] | Kd [5] | Kd [6] | Kd [7] | Kd [8] | Kd [9]
FC(F)(F)c1ccc(/C=C/c2nc(COc3ccc(CCCCn4ccnn4)cc3)co2)cc1 [MUBRITINIB] | > 30 µM (inactive) | > 30 µM (inactive) | > 30 µM (inactive) | > 30 µM (inactive) | > 30 µM (inactive) | > 30 µM (inactive) | > 30 µM (inactive) | > 30 µM (inactive) | > 30 µM (inactive) | > 30 µM (inactive) | > 30 µM (inactive)
COc1ncc(-c2ccc3nccc(-c4ccnnc4)c3c2)cc1NS(=O)(=O)c1ccc(F)cc1F [OMIPALISIB] | > 30 µM (inactive) | > 30 µM (inactive) | > 30 µM (inactive) | > 30 µM (inactive) | > 30 µM (inactive) | > 30 µM (inactive) | > 30 µM (inactive) | > 30 µM (inactive) | > 30 µM (inactive) | > 30 µM (inactive) | > 30 µM (inactive)
Cc1cnc(NC(=O)Nc2cc(Br)c(C)cc2OC[C@@H]2CNCCO2)cn1 [RABUSERTIB] | > 30 µM (inactive) | > 30 µM (inactive) | > 30 µM (inactive) | > 30 µM (inactive) | > 30 µM (inactive) | > 30 µM (inactive) | > 30 µM (inactive) | > 30 µM (inactive) | > 30 µM (inactive) | > 30 µM (inactive) | > 30 µM (inactive)
N#CC1(c2ccc(NC(=O)c3cccnc3NCc3ccncc3)cc2)CCCC1 [RIVOCERANIB] | > 30 µM (inactive) | > 30 µM (inactive) | > 30 µM (inactive) | > 30 µM (inactive) | > 30 µM (inactive) | > 30 µM (inactive) | > 30 µM (inactive) | > 30 µM (inactive) | > 30 µM (inactive) | > 30 µM (inactive) | > 30 µM (inactive)
O=c1[nH]ccc2cc(OC3CCNCC3)ccc12 [SAR-407899 FREE BASE] | > 30 µM (inactive) | 0.013 µM | > 30 µM (inactive) | > 30 µM (inactive) | > 30 µM (inactive) | > 30 µM (inactive) | > 30 µM (inactive) | > 30 µM (inactive) | > 30 µM (inactive) | > 30 µM (inactive) | > 30 µM (inactive)
CO[C@H]1C[C@@H]2CC[C@@H](C)[C@@](O)(O2)C(=O)C(=O)N2CCCC[C@H]2C(=O)O[C@H]([C@H](C)C[C@@H]2CC[C@@H](OC(=O)C(C)(CO)CO)[C@H](OC)C2)CC(=O)[C@H](C)/C=C(\C)[C@@H](O)[C@@H](OC)C(=O)[C@H](C)C[C@H](C)/C=C/C=C/C=C/1C [TEMSIROLIMUS] | > 30 µM (inactive) | > 30 µM (inactive) | > 30 µM (inactive) | > 30 µM (inactive) | > 30 µM (inactive) | > 30 µM (inactive) | > 30 µM (inactive) | > 30 µM (inactive) | > 30 µM (inactive) | > 30 µM (inactive) | > 30 µM (inactive)
COc1cc2c(Nc3ccc(Cl)c(Cl)c3F)ncnc2cc1OC[C@@H]1C[C@@H]2CN(C)C[C@@H]2C1 [TESEVATINIB] | > 30 µM (inactive) | > 30 µM (inactive) | 1.52 µM (active) | > 30 µM (inactive) | 0.022 µM | > 30 µM (inactive) | > 30 µM (inactive) | > 30 µM (inactive) | > 30 µM (inactive) | > 30 µM (inactive) | > 30 µM (inactive)
O=C(Cc1ccc(-c2ccc(OCCN3CCOCC3)cc2)cn1)NCc1ccccc1 [TIRBANIBULIN] | > 30 µM (inactive) | > 30 µM (inactive) | > 30 µM (inactive) | > 30 µM (inactive) | > 30 µM (inactive) | > 30 µM (inactive) | > 30 µM (inactive) | > 30 µM (inactive) | > 30 µM (inactive) | > 30 µM (inactive) | > 30 µM (inactive)
C[C@@H](NC(=O)c1ncnc(N)c1Cl)c1ncc(C(=O)Nc2cc(C(F)(F)F)c(Cl)cn2)s1 [TOVORAFENIB] | > 30 µM (inactive) | > 30 µM (inactive) | 0.227 µM (active) | > 30 µM (inactive) | > 30 µM (inactive) | > 30 µM (inactive) | > 30 µM (inactive) | 11.1 µM (active) | > 30 µM (inactive) | > 30 µM (inactive) | > 30 µM (inactive)

Now from value to compound:

Kd (Aurora kinase B) | Kd [1] | Kd [2] | Kd [3] | Kd (Ephrin type-A receptor 7) | Kd [4] | Kd [5] | Kd [6] | Kd [7] | Kd [8] | Kd [9] | SMILES
> 30 µM (inactive) | > 30 µM (inactive) | > 30 µM (inactive) | > 30 µM (inactive) | > 30 µM (inactive) | > 30 µM (inactive) | 52.6 µM (active) | 0.543 µM | > 30 µM (inactive) | > 30 µM (inactive) | > 30 µM (inactive) | CN(C[C@@H]1COCCO1)S(=O)(=O)Nc1ccc2ccc3ncc(-c4cnn(C)c4)cc3c(=O)c2c1 [MK-2461]
> 30 µM (inactive) | > 30 µM (inactive) | > 30 µM (inactive) | > 30 µM (inactive) | > 30 µM (inactive) | > 30 µM (inactive) | > 30 µM (inactive) | > 30 µM (inactive) | > 30 µM (inactive) | > 30 µM (inactive) | > 30 µM (inactive) | Cn1cc(-c2cnc3ccc4ccc(CS(=O)(=O)NCc5ccccn5)cc4c(=O)c3c2)cn1 [MK-8033]
2.08 µM (active) | 2.54 µM (active) | > 30 µM (inactive) | > 30 µM (inactive) | > 30 µM (inactive) | 3.89 µM (active) | > 30 µM (inactive) | 29.7 µM | > 30 µM (inactive) | > 30 µM (inactive) | > 30 µM (inactive) | Cc1nc(Nc2n[nH]c3c2CN(C(=O)N[C@H](CN(C)C)c2ccccc2)C3(C)C)c2sccc2n1 [PF-03758309]
